Assay results from paper PMC5218480 (PLoS ONE, 2017).

Test system: MV-4-11 cells
Assay: Gene expression microarray analysis (Affymetrix PrimeView) and GSEA
Assay type: cell-based, human
Design: RFU PODN (11730768_x_at) / Fold change /veh PODN (11730768_x_at) / RFU LINC00158 (11744669_a_at) / Fold change /veh LINC00158 (11744669_a_at) / RFU DUSP10 (11751237_a_at) / Fold change /veh DUSP10 (11751237_a_at) / RFU ID3 (11757404_x_at) / Fold change /veh ID3 (11757404_x_at) / RFU PLEKHG5 (11737974_s_at) / Fold change /veh PLEKHG5 (11737974_s_at) / RFU LRRC4B (11730491_at) / Fold change /veh LRRC4B (11730491_at) / RFU GIMAP4 (11747438_a_at) / Fold change /veh GIMAP4 (11747438_a_at) / RFU KRT8 (11758183_x_at) / Fold change /veh KRT8 (11758183_x_at) / RFU CNN1 (11734310_a_at) / Fold change /veh CNN1 (11734310_a_at) / RFU VPS37D (11726825_at) / Fold change /veh VPS37D (11726825_at) / RFU C10orf10 (11716522_x_at) / Fold change /veh C10orf10 (11716522_x_at) / RFU KIR2DL2 /// KIR2DL4 /// KIR2DL5A /// KIR2DL5B /// KIR2DS1 /// KIR2DS2 /// KIR2DS3 /// KIR2DS4 /// KIR3DL3 /// KIR3DL3 /// KIR3DS1 (11738374_at) / Fold change /veh KIR2DL2 /// KIR2DL4 /// KIR2DL5A /// KIR2DL5B /// KIR2DS1 /// KIR2DS2 /// KIR2DS3 /// KIR2DS4 /// KIR3DL3 /// KIR3DL3 /// KIR3DS1 (11738374_at) / RFU C1QL1 (11718748_at) / Fold change /veh C1QL1 (11718748_at) / RFU TMPRSS4 (11747572_a_at) / Fold change /veh TMPRSS4 (11747572_a_at) / RFU HAMP (11756126_x_at) / Fold change /veh HAMP (11756126_x_at) / RFU RNFT2 (11725882_a_at) / Fold change /veh RNFT2 (11725882_a_at) / RFU NR4A2 (11747474_a_at) / Fold change /veh NR4A2 (11747474_a_at) / RFU ABCC12 (11746883_a_at) / Fold change /veh ABCC12 (11746883_a_at) / RFU TMEM136 (11760407_x_at) / Fold change /veh TMEM136 (11760407_x_at) / RFU CLDN22 /// WWC2 (11732394_at) / Fold change /veh CLDN22 /// WWC2 (11732394_at) / RFU HLA-DPB1 (11760878_x_at) / Fold change /veh HLA-DPB1 (11760878_x_at) / RFU SPINT1 (11716480_a_at) / Fold change /veh SPINT1 (11716480_a_at) / RFU GAP43 (11754022_s_at) / Fold change /veh GAP43 (11754022_s_at) / RFU A4GNT (11735810_at) / Fold change /veh A4GNT (11735810_at) / RFU PRB3 (11715151_x_at) / Fold change /veh PRB3 (11715151_x_at) / RFU TUBB4B (11761932_at) / Fold change /veh TUBB4B (11761932_at) / RFU CAPN14 (11732068_a_at) / Fold change /veh CAPN14 (11732068_a_at) / RFU TMCC2 (11721928_a_at) / Fold change /veh TMCC2 (11721928_a_at) / RFU IRGQ (11745062_a_at) / Fold change /veh IRGQ (11745062_a_at) / RFU FAM174B (11720279_a_at) / Fold change /veh FAM174B (11720279_a_at) / RFU TMPRSS4 (11748680_a_at) / Fold change /veh TMPRSS4 (11748680_a_at) / RFU FAM212B (11763350_a_at) / Fold change /veh FAM212B (11763350_a_at) / RFU PLEKHG5 (11743358_a_at) / Fold change /veh PLEKHG5 (11743358_a_at) / RFU ZSCAN30 (11745921_a_at) / Fold change /veh ZSCAN30 (11745921_a_at) / RFU CMKLR1 (11741424_a_at) / Fold change /veh CMKLR1 (11741424_a_at) / RFU LOC101060620 /// MAPK8IP1 (11723275_at) / Fold change /veh LOC101060620 /// MAPK8IP1 (11723275_at) / RFU SPTSSB (11747773_x_at) / Fold change /veh SPTSSB (11747773_x_at) / RFU PRSS12 (11739890_at) / Fold change /veh PRSS12 (11739890_at) / RFU BIN1 (11741810_x_at) / Fold change /veh BIN1 (11741810_x_at) / RFU WNT11 (11732464_a_at) / Fold change /veh WNT11 (11732464_a_at) / RFU C10orf10 (11716521_a_at) / Fold change /veh C10orf10 (11716521_a_at) / RFU C5orf56 (11738089_at) / Fold change /veh C5orf56 (11738089_at) / RFU CYB561 (11721691_x_at) / Fold change /veh CYB561 (11721691_x_at) / RFU ANKRD19P (11752326_a_at) / Fold change /veh ANKRD19P (11752326_a_at) / RFU OR2T12 /// OR2T33 /// OR2T8 (11738714_s_at) / Fold change /veh OR2T12 /// OR2T33 /// OR2T8 (11738714_s_at) / RFU VCAN (11748164_a_at) / Fold change /veh VCAN (11748164_a_at) / RFU JSRP1 (11732532_at) / Fold change /veh JSRP1 (11732532_at) / RFU KRTAP10-11 (11738290_x_at) / Fold change /veh KRTAP10-11 (11738290_x_at) / RFU MYO3A (11730013_a_at) / Fold change /veh MYO3A (11730013_a_at) / RFU EBF3 (11725865_a_at) / Fold change /veh EBF3 (11725865_a_at) / RFU CAMK2N1 (11719241_x_at) / Fold change /veh CAMK2N1 (11719241_x_at) / RFU C5orf56 (11738088_a_at) / Fold change /veh C5orf56 (11738088_a_at) / RFU OLFML3 (11715873_a_at) / Fold change /veh OLFML3 (11715873_a_at) / RFU LOC100653217 /// NTM (11731650_a_at) / Fold change /veh LOC100653217 /// NTM (11731650_a_at) / RFU MAPK11 (11762145_a_at) / Fold change /veh MAPK11 (11762145_a_at) / RFU FIZ1 (11724087_x_at) / Fold change /veh FIZ1 (11724087_x_at) / RFU OASL (11726364_x_at) / Fold change /veh OASL (11726364_x_at) / RFU SOX15 (11748057_x_at) / Fold change /veh SOX15 (11748057_x_at) / RFU CD79A (11719716_a_at) / Fold change /veh CD79A (11719716_a_at) / RFU HIST1H1D (11736915_at) / Fold change /veh HIST1H1D (11736915_at) / RFU CASKIN2 (11723855_a_at) / Fold change /veh CASKIN2 (11723855_a_at) / RFU LOC730098 (11760151_x_at) / Fold change /veh LOC730098 (11760151_x_at) / RFU OR4N2 (11742367_at) / Fold change /veh OR4N2 (11742367_at) / RFU PRRT2 (11749266_a_at) / Fold change /veh PRRT2 (11749266_a_at) / RFU SNX32 (11753110_a_at) / Fold change /veh SNX32 (11753110_a_at) / RFU CDHR5 (11726645_a_at) / Fold change /veh CDHR5 (11726645_a_at) / RFU RCAN1 (11760418_a_at) / Fold change /veh RCAN1 (11760418_a_at) / RFU FAM167A (11723789_a_at) / Fold change /veh FAM167A (11723789_a_at) / RFU FAM26E (11764081_at) / Fold change /veh FAM26E (11764081_at) / RFU ISYNA1 (11749810_s_at) / Fold change /veh ISYNA1 (11749810_s_at) / RFU ACY1 (11761880_at) / Fold change /veh ACY1 (11761880_at) / RFU 11764098_at / Fold change /veh 11764098_at / RFU SAMD14 (11745864_x_at) / Fold change /veh SAMD14 (11745864_x_at) / RFU NPB (11741838_a_at) / Fold change /veh NPB (11741838_a_at) / RFU TMPRSS6 (11731388_a_at) / Fold change /veh TMPRSS6 (11731388_a_at) / RFU KRTAP10-2 (11738614_at) / Fold change /veh KRTAP10-2 (11738614_at) / RFU ARHGAP8 /// PRR5-ARHGAP8 (11727945_x_at) / Fold change /veh ARHGAP8 /// PRR5-ARHGAP8 (11727945_x_at) / RFU KRTAP5-7 /// NADSYN1 (11734609_at) / Fold change /veh KRTAP5-7 /// NADSYN1 (11734609_at) / RFU RASL12 (11751679_a_at) / Fold change /veh RASL12 (11751679_a_at) / RFU CDKN2B (11736163_a_at) / Fold change /veh CDKN2B (11736163_a_at) / RFU PRF1 (11729649_at) / Fold change /veh PRF1 (11729649_at) / RFU, ZNF638 /// ZNF638-IT1 / Fold change vs veh, ZNF638 /// ZNF638-IT1 / RFU, PANK3 / Fold change vs veh, PANK3 / RFU, SH3YL1 / Fold change vs veh, SH3YL1 / RFU, ZEB2 / Fold change vs veh, ZEB2 / RFU, NRIP1 / Fold change vs veh, NRIP1 / RFU, PTTG1IP / Fold change vs veh, PTTG1IP / RFU, CAPN2 / Fold change vs veh, CAPN2 / RFU, MED14 / Fold change vs veh, MED14 / RFU, SNORA58 / Fold change vs veh, SNORA58 / RFU, C1orf63 / Fold change vs veh, C1orf63 / RFU, LRRFIP1 / Fold change vs veh, LRRFIP1 / RFU, NDUFAF7 / Fold change vs veh, NDUFAF7 / RFU, SLC12A2 / Fold change vs veh, SLC12A2 / RFU, IBTK / Fold change vs veh, IBTK / RFU, ESF1 / Fold change vs veh, ESF1 / Fold change vs veh, TMEM50B / RFU, TAOK1 / Fold change vs veh, TAOK1 / RFU, ACBD3 / Fold change vs veh, ACBD3 / RFU, TMA16 / Fold change vs veh, TMA16 / RFU, RWDD3 / Fold change vs veh, RWDD3 / RFU, BCAT1 / Fold change vs veh, BCAT1 / RFU, EDEM3 / Fold change vs veh, EDEM3 / RFU, TMEM33 / Fold change vs veh, TMEM33 / RFU, WDR75 / Fold change vs veh, WDR75 / RFU, AHCTF1 / Fold change vs veh, AHCTF1 / RFU, TFRC / Fold change vs veh, TFRC / RFU, ZDHHC17 / Fold change vs veh, ZDHHC17 / RFU, NOM1 / Fold change vs veh, NOM1 / RFU, ARL8B / Fold change vs veh, ARL8B / RFU, ZBTB11 / Fold change vs veh, ZBTB11 / RFU, TAMM41 / Fold change vs veh, TAMM41 / RFU, KIAA1704 /// LOC100996395 / Fold change vs veh, KIAA1704 /// LOC100996395 / RFU, ING1 / Fold change vs veh, ING1 / RFU, TRMT61B / Fold change vs veh, TRMT61B / RFU, FUBP3 / Fold change vs veh, FUBP3 / RFU, TP53 / Fold change vs veh, TP53 / RFU, TNKS2 / Fold change vs veh, TNKS2 / RFU, ZFP14 / Fold change vs veh, ZFP14 / RFU, ACTR2 / Fold change vs veh, ACTR2 / RFU, PPP3R1 / Fold change vs veh, PPP3R1 / RFU, PIK3R1 / Fold change vs veh, PIK3R1 / RFU, HNRNPA1 / Fold change vs veh, HNRNPA1 / RFU, RNF170 / Fold change vs veh, RNF170 / RFU, ZNF28 / Fold change vs veh, ZNF28 / RFU, RNGTT / Fold change vs veh, RNGTT / RFU, OGT / Fold change vs veh, OGT / RFU, BRD1 / Fold change vs veh, BRD1 / RFU, MARS / Fold change vs veh, MARS / RFU, ZNF655 / Fold change vs veh, ZNF655 / RFU, FAHD1 / Fold change vs veh, FAHD1 / RFU, BDP1 / Fold change vs veh, BDP1 / RFU, LRRCC1 / Fold change vs veh, LRRCC1 / RFU, ARID1A / Fold change vs veh, ARID1A / RFU, ZNF146 / Fold change vs veh, ZNF146 / RFU, ZNF330 / Fold change vs veh, ZNF330 / RFU, GPN3 / Fold change vs veh, GPN3 / RFU, C9orf123 / Fold change vs veh, C9orf123 / RFU, N4BP2L2 / Fold change vs veh, N4BP2L2 / RFU, ARFIP1 / Fold change vs veh, ARFIP1 / RFU, FAM179B / Fold change vs veh, FAM179B / RFU, BCL10 / Fold change vs veh, BCL10 / RFU, UHRF1BP1L / Fold change vs veh, UHRF1BP1L / RFU, BET1 / Fold change vs veh, BET1 / RFU, CNOT2 / Fold change vs veh, CNOT2 / RFU, ZNF268 / Fold change vs veh, ZNF268 / Fold change vs veh, ZNF507 / RFU, DGCR2 / Fold change vs veh, DGCR2 / RFU, WDSUB1 / Fold change vs veh, WDSUB1 / Fold change vs veh, HSP90B1 /// MIR3652 / RFU, ADSS / Fold change vs veh, ADSS / RFU, GK / Fold change vs veh, GK / RFU, ZNF148 / Fold change vs veh, ZNF148 / RFU, TAF9 / Fold change vs veh, TAF9 / RFU, SLC1A5 / Fold change vs veh, SLC1A5 / RFU, SLMO2 / Fold change vs veh, SLMO2 / RFU, ABCC4 / Fold change vs veh, ABCC4 / RFU, LOC101060439 /// RAP1B / Fold change vs veh, LOC101060439 /// RAP1B / RFU, RFX7 / Fold change vs veh, RFX7 / RFU, GTPBP10 / Fold change vs veh, GTPBP10 / RFU, CNEP1R1 / Fold change vs veh, CNEP1R1 / RFU, BIVM-ERCC5 /// ERCC5 / Fold change vs veh, BIVM-ERCC5 /// ERCC5 / RFU, ILF3 / Fold change vs veh, ILF3 / RFU 11762660_at / Fold change /veh 11762660_at / RFU VCAN (11757783_s_at) / Fold change /veh VCAN (11757783_s_at) / RFU DDX43 (11728927_at) / Fold change /veh DDX43 (11728927_at) / RFU KRT8 (11758188_x_at) / Fold change /veh KRT8 (11758188_x_at) / RFU NKD1 (11759106_at) / Fold change /veh NKD1 (11759106_at) / RFU SRD5A1 (11742802_a_at) / Fold change /veh SRD5A1 (11742802_a_at) / RFU TPSAB1 /// TPSB2 (11721975_s_at) / Fold change /veh TPSAB1 /// TPSB2 (11721975_s_at) / RFU GSTM3 (11746129_a_at) / Fold change /veh GSTM3 (11746129_a_at) / RFU IL23R (11737362_x_at) / Fold change /veh IL23R (11737362_x_at) / RFU TMEM51 (11727254_a_at) / Fold change /veh TMEM51 (11727254_a_at) / RFU PIWIL2 (11732686_x_at) / Fold change /veh PIWIL2 (11732686_x_at) / RFU ORM1 (11744905_x_at) / Fold change /veh ORM1 (11744905_x_at) / RFU CCDC152 (11743942_at) / Fold change /veh CCDC152 (11743942_at) / RFU ECM1 (11717891_a_at) / Fold change /veh ECM1 (11717891_a_at) / RFU IL23R (11748794_a_at) / Fold change /veh IL23R (11748794_a_at) / RFU TNFAIP8L3 (11732012_x_at) / Fold change /veh TNFAIP8L3 (11732012_x_at) / RFU MBOAT4 (11741988_at) / Fold change /veh MBOAT4 (11741988_at) / RFU 11764193_at / Fold change /veh 11764193_at / RFU TMEM53 (11763286_at) / Fold change /veh TMEM53 (11763286_at) / RFU MAGEB2 (11727129_at) / Fold change /veh MAGEB2 (11727129_at) / RFU TMEM200A (11744735_a_at) / Fold change /veh TMEM200A (11744735_a_at) / RFU CCDC152 (11751479_a_at) / Fold change /veh CCDC152 (11751479_a_at) / RFU FAM211A (11726209_a_at) / Fold change /veh FAM211A (11726209_a_at) / RFU RGS16 (11746705_a_at) / Fold change /veh RGS16 (11746705_a_at) / RFU VCAN (11755009_s_at) / Fold change /veh VCAN (11755009_s_at) / RFU RHOB (11743442_s_at) / Fold change /veh RHOB (11743442_s_at) / RFU RGS16 (11720943_a_at) / Fold change /veh RGS16 (11720943_a_at) / RFU RGS16 (11720944_at) / Fold change /veh RGS16 (11720944_at) / RFU, VPS4B / Fold change vs veh, VPS4B / RFU, CREB1 / Fold change vs veh, CREB1 / RFU, DNAJC13 / Fold change vs veh, DNAJC13 / RFU, GNAQ / Fold change vs veh, GNAQ / RFU, CDK5R1 / Fold change vs veh, CDK5R1 / RFU, ZRANB3 / Fold change vs veh, ZRANB3 / RFU, CUL4A / Fold change vs veh, CUL4A / RFU, CCNY / Fold change vs veh, CCNY / RFU, UFL1 / Fold change vs veh, UFL1 / RFU, COG3 / Fold change vs veh, COG3 / RFU, DIAPH2 / Fold change vs veh, DIAPH2 / RFU, SKA2 / Fold change vs veh, SKA2 / RFU, AFF3 / Fold change vs veh, AFF3 / RFU, LMF1 / Fold change vs veh, LMF1 / RFU, IPO11 / Fold change vs veh, IPO11 / RFU, DFFB / Fold change vs veh, DFFB / RFU, FOXP1 / Fold change vs veh, FOXP1 / RFU, CARD8 / Fold change vs veh, CARD8 / RFU, STRN3 / Fold change vs veh, STRN3 / RFU, ADK / Fold change vs veh, ADK / RFU, RASSF2 / Fold change vs veh, RASSF2 / RFU, WIPF1 / Fold change vs veh, WIPF1 / RFU, LARP1B / Fold change vs veh, LARP1B / RFU, RASA1 / Fold change vs veh, RASA1 / RFU, RB1 / Fold change vs veh, RB1 / RFU, PPFIA1 / Fold change vs veh, PPFIA1 / RFU, MAT2A / Fold change vs veh, MAT2A / RFU, CCT5 / Fold change vs veh, CCT5 / RFU, WDR92 / Fold change vs veh, WDR92 / RFU, CUX1 / Fold change vs veh, CUX1 / RFU, TTC7A / Fold change vs veh, TTC7A / RFU, TMEM135 / Fold change vs veh, TMEM135 / RFU, DEPTOR / Fold change vs veh, DEPTOR / RFU, CPM / Fold change vs veh, CPM / RFU, DNAJB6 / Fold change vs veh, DNAJB6 / RFU, CACNA2D3 / Fold change vs veh, CACNA2D3 / RFU, DTX4 / Fold change vs veh, DTX4 / RFU, TFCP2 / Fold change vs veh, TFCP2 / RFU, GMCL1 /// GMCL1P1 / Fold change vs veh, GMCL1 /// GMCL1P1 / RFU, AEBP2 / Fold change vs veh, AEBP2 / RFU, SNHG1 /// SNORD22 /// SNORD25 /// SNORD26 /// SNORD27 /// SNORD28 /// SNORD29 /// SNORD31 / Fold change vs veh, SNHG1 /// SNORD22 /// SNORD25 /// SNORD26 /// SNORD27 /// SNORD28 /// SNORD29 /// SNORD31 / Fold change (Aza/veh), C12orf56 (ProbeSet 11735607_a_at) / Fold change (ACY-1035/veh), C12orf56 (ProbeSet 11735607_a_at) / Fold change (Aza/veh), FGFR1OP (ProbeSet 11751329_s_at) / Fold change (ACY-1035/veh), FGFR1OP (ProbeSet 11751329_s_at) / Fold change (Aza/veh), VPS36 (ProbeSet 11739960_a_at) / Fold change (ACY-1035/veh), VPS36 (ProbeSet 11739960_a_at) / RFU SYPL1 (11715823_x_at) / Fold change /veh SYPL1 (11715823_x_at) / RFU IGFBP7 (11715501_s_at) / Fold change /veh IGFBP7 (11715501_s_at) / RFU REEP3 (11722064_at) / Fold change /veh REEP3 (11722064_at) / RFU IGLL1 (11728026_x_at) / Fold change /veh IGLL1 (11728026_x_at): dose or concentration left out as unconfirmed
Details: MV-4-11 cells, 48 hours

Nc1ccc(-c2cccs2)cc1NC(=O)c1ccc2c(c1)cc(C1CC1)n2CCN1CCOCC1 [ACY-1035]
Fold change /veh RGS16 (11746705_a_at): 1.06
